From BindingDB's records for doi:10.1016/j.chembiol.2015.08.013 (Aston University, 2015)

Tests used:
Experiment in all cases: TG Activity Assays
[1] = molecular target: T1, Protein-glutamine gamma-glutamyltransferase 2 (Homo sapiens, UniProt P21980)
T1 sequence (P21980 whole entry): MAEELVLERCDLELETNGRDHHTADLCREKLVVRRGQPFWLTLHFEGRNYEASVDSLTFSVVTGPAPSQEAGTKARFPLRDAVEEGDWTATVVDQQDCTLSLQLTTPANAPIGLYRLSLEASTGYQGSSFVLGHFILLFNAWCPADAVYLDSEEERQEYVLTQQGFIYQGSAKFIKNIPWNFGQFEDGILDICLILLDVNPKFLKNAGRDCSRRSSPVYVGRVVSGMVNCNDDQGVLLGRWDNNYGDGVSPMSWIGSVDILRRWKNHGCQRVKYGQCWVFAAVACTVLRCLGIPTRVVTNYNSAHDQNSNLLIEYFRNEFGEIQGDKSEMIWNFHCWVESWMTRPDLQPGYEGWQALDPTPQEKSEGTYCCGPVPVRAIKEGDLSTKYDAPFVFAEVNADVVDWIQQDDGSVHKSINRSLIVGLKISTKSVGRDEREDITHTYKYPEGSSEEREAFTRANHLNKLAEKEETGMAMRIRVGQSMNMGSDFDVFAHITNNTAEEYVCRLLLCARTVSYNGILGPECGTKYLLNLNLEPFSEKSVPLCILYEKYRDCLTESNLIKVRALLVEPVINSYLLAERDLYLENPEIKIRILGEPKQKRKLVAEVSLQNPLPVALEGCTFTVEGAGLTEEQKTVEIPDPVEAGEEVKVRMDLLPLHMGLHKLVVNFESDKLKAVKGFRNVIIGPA
Protocol: (§1) The incorporated biotinylated peptides were measured using horseradish peroxidase-conjugated streptavidin and then measured using o-phenylenediamine dihydrochloride substrates. The absorbance was measured at 490 nm using a microplat

[2] = molecular target: T2, Protein-glutamine gamma-glutamyltransferase E (Homo sapiens, UniProt Q08188)
T2 sequence (Q08188 whole entry): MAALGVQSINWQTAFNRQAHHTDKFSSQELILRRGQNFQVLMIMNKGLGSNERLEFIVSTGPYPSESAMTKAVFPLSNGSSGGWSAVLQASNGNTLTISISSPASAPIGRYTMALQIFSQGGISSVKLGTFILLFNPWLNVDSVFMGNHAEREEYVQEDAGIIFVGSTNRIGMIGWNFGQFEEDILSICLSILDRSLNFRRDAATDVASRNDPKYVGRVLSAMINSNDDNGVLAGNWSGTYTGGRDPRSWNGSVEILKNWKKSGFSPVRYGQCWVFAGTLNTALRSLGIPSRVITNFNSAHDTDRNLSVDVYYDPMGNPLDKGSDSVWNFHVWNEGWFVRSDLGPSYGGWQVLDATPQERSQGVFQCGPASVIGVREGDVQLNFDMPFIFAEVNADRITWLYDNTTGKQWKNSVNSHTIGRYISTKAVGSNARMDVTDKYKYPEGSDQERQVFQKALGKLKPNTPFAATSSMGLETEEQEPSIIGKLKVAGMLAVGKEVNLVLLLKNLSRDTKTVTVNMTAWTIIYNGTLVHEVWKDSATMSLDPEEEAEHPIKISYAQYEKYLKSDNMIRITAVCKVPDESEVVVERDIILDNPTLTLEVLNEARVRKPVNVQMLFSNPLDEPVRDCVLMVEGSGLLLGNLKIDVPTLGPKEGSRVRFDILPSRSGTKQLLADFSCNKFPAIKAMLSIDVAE
Protocol: as §1

[3] = molecular target: T3, Protein-glutamine gamma-glutamyltransferase K (Homo sapiens, UniProt P22735)
T3 sequence (P22735 whole entry): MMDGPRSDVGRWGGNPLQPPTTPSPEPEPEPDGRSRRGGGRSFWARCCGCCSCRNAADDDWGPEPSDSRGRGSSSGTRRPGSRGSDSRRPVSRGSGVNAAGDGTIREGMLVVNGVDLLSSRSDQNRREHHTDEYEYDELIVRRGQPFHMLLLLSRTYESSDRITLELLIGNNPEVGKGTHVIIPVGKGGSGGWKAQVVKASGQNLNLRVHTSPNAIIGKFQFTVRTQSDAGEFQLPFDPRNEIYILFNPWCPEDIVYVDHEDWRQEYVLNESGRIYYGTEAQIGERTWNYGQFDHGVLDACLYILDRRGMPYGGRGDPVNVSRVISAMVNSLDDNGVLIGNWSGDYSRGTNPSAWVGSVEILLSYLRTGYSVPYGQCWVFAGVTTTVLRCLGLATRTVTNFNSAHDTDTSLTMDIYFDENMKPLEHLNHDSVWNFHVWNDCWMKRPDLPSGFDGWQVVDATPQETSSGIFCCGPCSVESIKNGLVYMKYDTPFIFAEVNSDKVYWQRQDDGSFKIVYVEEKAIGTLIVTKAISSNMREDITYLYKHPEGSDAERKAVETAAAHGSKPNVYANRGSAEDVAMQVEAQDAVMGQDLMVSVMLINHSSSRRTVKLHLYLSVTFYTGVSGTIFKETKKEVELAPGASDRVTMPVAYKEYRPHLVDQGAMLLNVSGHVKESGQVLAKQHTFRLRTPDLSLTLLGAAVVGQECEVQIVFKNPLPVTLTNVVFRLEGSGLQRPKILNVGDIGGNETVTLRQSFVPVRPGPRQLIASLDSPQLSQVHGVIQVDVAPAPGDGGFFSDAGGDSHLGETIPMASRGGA
Protocol: as §1

SMILES | IC50 [1] [µM] | IC50 [2] [µM] | IC50 [3] [µM]
O=C(CBr)NCC(=O)N1CCN(C(=O)OCc2ccc3ccccc3c2)CC1 [2-Naphthylmethyl 4-[2-[(2-bromoacetyl)amino]acetyl]piperazine-1-carboxylate (6c)] | 0.029 |  | 
COC(=O)c1ccc2cc(COC(=O)N3CCN(C(=O)CNC(=O)CCl)CC3)ccc2c1 [(6-Methoxycarbonyl-2-naphthyl)methyl 4-[2-[(2-chloroacetyl)amino]acetyl]piperazine-1-carboxylate (6n)] | 0.00665 |  | 
COC(=O)c1ccc2cc(COC(=O)N3CCN(C(=O)CNC(=O)CBr)CC3)ccc2c1 [(6-Methoxycarbonyl-2-naphthyl)methyl 4-[2-[(2-bromoacetyl)amino]acetyl]piperazine-1-carboxylate (6d)] | 0.015 | 65 | 5
C[S+](C)CC(=O)NCC(=O)N1CCN(C(=O)OC(C)(C)C)CC1 [[2-[[2-(4-tert-Butoxycarbonylpiperazin-1-yl)-2-oxo-ethyl]amino]-2-oxo-ethyl]-dimethylsulfonium bromide (1m)] | 0.273 | > 100 | > 100
O=C(CBr)NCC(=O)N1CCN(C(=O)OCCC23CC4CC(CC(C4)C2)C3)CC1 [2-(1-Adamantyl)ethyl 4-[2-[(2-bromoacetyl)amino]acetyl]piperazine-1-carboxylate (6g)] |  | 50 | 3
C=CC(=O)NCC(=O)N1CCN(C(=O)OCc2ccc3ccccc3c2)CC1 [2-Naphthylmethyl 4-[2-(prop-2-enoylamino)acetyl]piperazine-1-carboxylate (3c)] | 0.44 | > 100 | > 100
O=C(CBr)NCC(=O)N1CCN(C(=O)OCC23CC4CC(CC(C4)C2)C3)CC1 [1-Adamantylmethyl 4-[2-[(2-bromoacetyl)amino]acetyl]piperazine-1-carboxylate (6f)] | 0.00629 |  | 
COC(=O)c1ccc(COC(=O)N2CCN(C(=O)CNC(=O)CBr)CC2)cc1 [(4-Methoxycarbonylphenyl)methyl 4-[2-[(2-bromoacetyl)amino]acetyl]piperazine-1-carboxylate (6b)] | 0.0021 |  | 
C=CC(=O)NCC(=O)N1CCN(C(=O)OCCC23CC4CC(CC(C4)C2)C3)CC1 [2-(1-Adamantyl)ethyl 4-[2-(prop-2-enoylamino)acetyl]piperazine-1-carboxylate (3g)] | 0.9 | > 100 | > 100
C=CC(=O)NCC(=O)N1CCN(C(=O)OCc2ccc(C(=O)OC)cc2)CC1 [(4-Methoxycarbonylphenyl)methyl 4-[2-(prop-2-enoylamino)acetyl]piperazine-1-carboxylate (3b)] | 6.3 |  | 

Now from value to compound:

IC50 [1] [µM] | IC50 [2] [µM] | IC50 [3] [µM] | SMILES
0.0039 | 70 | 1 | O=C(CBr)NCC(=O)N1CCN(C(=O)C23CC4CC(CC(C4)C2)C3)CC1 [N-[2-[4-(adamantane-1-carbonyl)piperazin-1-yl]-2-oxo-ethyl]-2-bromo-acetamide (6e)]
1.4 | > 100 | > 100 | C[S+](C)CC(=O)NCC(=O)N1CCN(C(=O)OCc2ccccc2)CC1 [[2-[[2-(4-Benzyloxycarbonylpiperazin-1-yl)-2-oxo-ethyl]amino]-2-oxo-ethyl]-dimethylsulfonium bromide (1a)]
0.875 |  |  | C=CS(=O)(=O)NCC(=O)N1CCN(C(=O)C23CC4CC(CC(C4)C2)C3)CC1 [N-[2-[4-(adamantane-1-carbonyl)piperazin-1-yl]-2-oxo-ethyl]ethenesulfonamide (2e)]
100 |  |  | Cc1c(C)[n+](C)c(SCC(=O)NCC(=O)N2CCN(C(=O)OCc3ccccc3)CC2)n1C [Benzyl 4-[2-[[2-(1,3,4,5-tetramethylimidazol-1-ium-2-yl)sulfanylacetyl]amino]-acetyl]-piperazine-1-carboxylate bromide (1s)]
0.00875 |  |  | O=C(CCl)NCC(=O)N1CCN(C(=O)C23CC4CC(CC(C4)C2)C3)CC1 [N-[2-[4-(adamantane-1-carbonyl)piperazin-1-yl]-2-oxo-ethyl]-2-chloro-acetamide (6o)]
3.15 |  |  | C[S+](C)CC(=O)NCC(=O)N1CCN(C(=O)OCCC23CC4CC(CC(C4)C2)C3)CC1 [[2-[[2-[4-[2-(1-Adamantyl)ethoxycarbonyl]piperazin-1-yl]-2-oxo-ethyl]amino]-2-oxo-ethyl]-dimethyl-sulfonium bromide (1g)]
 | 20 | 25 | C=CC(=O)NCC(=O)N1CCN(S(=O)(=O)c2cccc3c(N(C)C)cccc23)CC1 [N-[2-[4-[[5-(dimethylamino)-1-naphthyl]sulfonyl]piperazin-1-yl]-2-oxo-ethyl]prop-2-enamide (3h)]
1.73 |  |  | C=CS(=O)(=O)NCC(=O)N1CCN(C(=O)OCc2ccccc2)CC1 [Benzyl 4-[2-(vinylsulfonylamino)acetyl]piperazine-1-carboxylate (2a)]
5.92 |  |  | C=CC(=O)NCC(=O)N1CCN(C(=O)OCc2ccccc2)CC1 [Benzyl 4-[2-(prop-2-enoylamino)acetyl]piperazine-1-carboxylate (3a)]
3.3 | > 100 | > 100 | COC(=O)c1ccc(COC(=O)N2CCN(C(=O)CNC(=O)C[S+](C)C)CC2)cc1 [[2-[[2-[4-[(4-Methoxycarbonylphenyl)methoxycarbonyl]piperazin-1-yl]-2-oxo-ethyl]-amino]-2-oxo-ethyl]-dimethyl-sulfonium bromide (1b)]
1.07 | > 100 | > 100 | C[S+](C)CC(=O)NCC(=O)N1CCN(C(=O)OCc2ccc3ccccc3c2)CC1 [Dimethyl-[2-[[2-[4-(2-naphthylmethoxycarbonyl)piperazin-1-yl]-2-oxo-ethyl]amino]-2-oxo-ethyl]sulfonium bromide (1c)]
